From patent publication US20180163056A1, “HYDROPHILIC CURABLE COMPOSITIONS” (MITSUI CHEMICALS, INC., priority 2013, published 2018)

Test: Measurement of solubility with respect to cyclohexane:toluene=5:1 (by weight)
Assay type: physicochemical
Conditions: 25° C., stirred 1 hour, 0.45 μm filter
Experimental: 1.0 g of hydrophilic compound SPA-K, namely, potassium 3-acryloyloxypropylsulfonate (or potassium 3-sulfopropylacrylate salt) as a constituent for the concentration-gradient films according to the invention was added to 10.0 g of a mixture solution including 8.3 g of cyclohexane and 1.7 g of toluene. The mixture was stirred at 25° C. for 1 hour and was filtered through a 0.45 μm membrane filter.
The filtrate was placed onto an evaporation dish, heated at 150° C. for 2 hours, and cooled to room temperature. The weight of the residue was measured.
Lastly, the solubility with respect to cyclohexane:toluene=5:1 (by weight) was calculated using the following equation.
Solubility (wt %)=Weight of residue (g)/{10.0 (g)+Weight of residue (g)}×100

Question: For `C=CC(=O)OCCCS(=O)(=O)[O-].[K+]` [SPA-K, potassium 3-acryloyloxypropylsulfonate], which “Solubility with respect to cyclohexane:toluene=5:1 (by weight)” value is on record?
Answer: The value was under 1 wt %.
